# Laboratory results: patent US9682060B2, “Small molecules that induce intrinsic pathway apoptosis” (The Board of Trustees of the University of Illinois, priority 2015, dated 2017)
# Where two headings read alike, the source gives them in different places. Starred links: 1 amine or outer side, 2 acyl side, 3 side chain; linkers in the order of their positions; H or OH if unused. Positions of bridges follow the written chain, without caps; N, C: chain ends. Non-standard residues stand in square brackets, D forms with d. Residues, ends and D or L forms follow the SMILES beside them. Chains are numbered I, II in the order given. Actinocin(9to1) = Cc1c2oc3c(C)ccc(C(=O)[*:1])c3nc-2c(C(=O)[*:2])c(N)c1=O; NMeV = CN[C@H](C(=O)O)C(C)C; Sar = CNCC(=O)O
# Assays:
# U-937 cells [1] = assay: Annexin V/PI cell viability analysis
# U-937 cells [2] = assay: Protection assays using small molecule inhibitors (protection from Raptinal, AV/PI); format: cell-based, Human; details: U-937 cells pretreated 2 hours with agent (concentrations of Table 3), then 10 μM Raptinal 2 hours
# Method: Protection Assays Using Small Molecule Inhibitors.
# . The cells were then co-treated with Raptinal at 10 μM for 2 hours prior to analysis by propidium iodide/FITC-annexin V staining and flow cytometry.
# U-937 cells [3] = format: cell-based, Human; details: 20 minute treatment, dihydroethidium, flow cytometry
# Method: Measurement of Cellular ROS Production.
# U-937 cells (1 mL of 5×10^5 cells/mL) in Hank's buffered salt solution (HBSS) containing 5 mM glucose were treated with DMSO, 2 or 10 μM Raptinal, 10 μM thapsigargin, 100 μM etoposide (1% DMSO final) and incubated in the presence of 5 μM dihydroethidium a 37° C., 5% CO2 incubator for 20 minutes. […]. The levels of ethidium were assessed by flow cytometry. Live cells were analyzed based on gating on the forward and side scatter properties and the geometric mean of ethidium staining was determined using the software FCS Express.
# [4] = test system: cancer cell lines (HL-60, SK-MEL-5, U-937); assay: Initial screens against cancer cell lines; format: cell-based, Human; details: cancer cells treated 1 hour, extensive washing to remove compound, read at 24-hour mark
# [5] = test system: adherent cell lines (HOS, H1993, SK-MEL-5, MIA PaCa-2); assay: Adherent cell lines: cell death by AV/PI staining and immunoblots; format: cell-based, Human; details: adherent cell lines; 10 μM (FIG. 1G)
# [6] = U-937 cells, 10 μM, time course AV/PI, based on data in FIG. 1F
Compound,Time to 50% death (U-937 cells [1]; [6]),protection from Raptinal-induced cell death (U-937 cells [2]),other results
CC[C@@]1(O)C(=O)OCc2c1cc1n(c2=O)Cc2cc3ccccc3nc2-1 [Camptothecin],5 h,,
C[C@@H]1C[C@@H]([C@H](O)CC2CC(=O)NC(=O)C2)C(=O)[C@@H](C)C1 [cycloheximide],,did not prevent or delay Raptinal-induced apoptosis,
COc1cccc2c1C(=O)c1c(O)c3c(c(O)c1C2=O)C[C@@](O)(C(=O)CO)C[C@@H]3O[C@H]1C[C@H](N)[C@H](O)[C@H](C)O1 [Doxorubicin],6 h,,
CCOC(=O)C1=C(N)Oc2ccc(Br)cc2C1C(C#N)C(=O)OCC (stereo not drawn) [HA-141],>36 h,,
"C/C=C(/C)C(=O)O[C@H]1C(C)=C2[C@H]([C@@H]1OC(=O)CCCCCCC)[C@@](C)(OC(C)=O)C[C@H](OC(=O)CCC)[C@@]1(O)[C@H]2OC(=O)[C@@]1(C)O [Thapsigargin, reference compound]",14 h,,production of reactive oxygen species (superoxide anion radicals) (U-937 cells [3]): rapid accumulation of superoxide anion radicals
Cc1cc2c(C(C)C)c(O)c(O)c(C=O)c2c(O)c1-c1c(C)cc2c(C(C)C)c(O)c(O)c(C=O)c2c1O [Gossypol],36 h,,
N#CC(C#N)=NNc1ccc(OC(F)(F)F)cc1 [FCCP],,significant to quantitative protection,
Antimycin A,>36 h,significant to quantitative protection,
O=C1C(=O)N(Cc2ccc(Cl)c(Cl)c2)c2ccccc21 [AA2],>36 h,,
"COc1cc([C@@H]2c3cc4c(cc3[C@@H](O[C@@H]3O[C@@H]5CO[C@@H](C)O[C@H]5[C@H](O)[C@H]3O)[C@H]3COC(=O)[C@H]23)OCO4)cc(OC)c1O [Etoposide, reference compound]",5 h,,production of reactive oxygen species (superoxide anion radicals) (U-937 cells [3]): not
"Cc1c2oc3c(C)ccc(C(=O)N[C@@H]4C(=O)N[C@H](C(C)C)C(=O)N5CCC[C@H]5C(=O)N(C)CC(=O)N(C)[C@@H](C(C)C)C(=O)O[C@@H]4C)c3nc-2c(C(=O)N[C@@H]2C(=O)N[C@H](C(C)C)C(=O)N3CCC[C@H]3C(=O)N(C)CC(=O)N(C)[C@@H](C(C)C)C(=O)O[C@@H]2C)c(N)c1=O [actinomycin D] (I: T[dV]P[Sar][NMeV] / II: T[dV]P[Sar][NMeV]; ester I:1-I:C, II:1-II:C; linker I:N-II:N via Actinocin(9to1))",,did not prevent or delay Raptinal-induced apoptosis,
"N.N.[Cl][Pt][Cl] [Cisplatin, reference compound]",>36 h,,cell death after short treatment and washout [4]: do not have a similar effect
"CC(=O)O[C@H]1C(=O)[C@@]2(C)[C@H]([C@H](OC(=O)c3ccccc3)[C@]3(O)C[C@H](OC(=O)[C@H](O)[C@@H](NC(=O)c4ccccc4)c4ccccc4)C(C)=C1C3(C)C)[C@]1(OC(C)=O)CO[C@@H]1C[C@@H]2O [Paclitaxel, reference compound]",18 h,,cell death after short treatment and washout [4]: do not have a similar effect
CN[C@@H](C)C(=O)N[C@H]1CCCC[C@H]2CC[C@@H](C(=O)N[C@@H](c3ccccc3)c3cn(CCCCc4ccc(CCCCn5cc([C@@H](NC(=O)[C@@H]6CC[C@@H]7CCCC[C@H](NC(=O)[C@H](C)NC)C(=O)N76)c6ccccc6)nn5)cc4)nn3)N2C1=O [SM-164],>36 h,,
COC1=C2C[C@@H](C)C[C@H](OC)[C@H](O)[C@@H](C)/C=C(\C)[C@H](OC(N)=O)[C@@H](OC)/C=C\C=C(/C)C(=O)NC(=CC1=O)C2=O [Geldanamycin],>36 h,,
CC[C@@H]1/C=C/C=C/C[C@H](C)[C@H](O)[C@](C)(O)C(=O)[C@H](C)[C@@H](O)[C@H](C)C(=O)[C@H](C)[C@@H](O)[C@H](C)/C=C/C(=O)O[C@H]2[C@@H](C)[C@@H](CC1)O[C@@]1(CC[C@@H](C)[C@@H](C[C@H](C)O)O1)[C@@H]2C [oligomycin A],,significant to quantitative protection,

Compound,Time to 50% death (U-937 cells [1]; [6]),protection from Raptinal-induced cell death (U-937 cells [2]),other results
COc1[nH]c(=O)c(C(=O)[C@@H](C)C[C@H](C)[C@@H](Cl)CCl)c(O)c1OC [atpenin A5],,did not confer significant protection,
COc1cc2c(c(OC)c1OC)-c1ccc(OC)c(=O)cc1[C@@H](NC(C)=O)CC2 [Colchicine],,,Time to 50% death (U-937 cells [1]): 15 h
CC[C@]1(O)C[C@H]2CN(CCc3c([nH]c4ccccc34)[C@@](C(=O)OC)(c3cc4c(cc3OC)N(C=O)[C@H]3[C@@](O)(C(=O)OC)[C@H](OC(C)=O)[C@]5(CC)C=CCN6CC[C@]43[C@@H]65)C2)C1 [Vincristine],14 h,,
CO[C@H]1C[C@@H]2CC[C@@H](C)[C@@](O)(O2)C(=O)C(=O)N2CCCC[C@H]2C(=O)O[C@H]([C@H](C)C[C@@H]2CC[C@@H](O)[C@H](OC)C2)CC(=O)[C@H](C)/C=C(\C)[C@@H](O)[C@@H](OC)C(=O)[C@H](C)C[C@H](C)/C=C/C=C/C=C/1C [Rapamycin],>36 h,,
O=S(=O)(O)c1cc(N=C=S)ccc1C=Cc1ccc(N=C=S)cc1S(=O)(=O)O [DIDS],,significant protection,
CN[C@@H]1C[C@H]2O[C@@](C)([C@@H]1OC)n1c3ccccc3c3c4c(c5c6ccccc6n2c5c31)C(=O)NC4 [Staurosporine],5 h,,"time of apoptotic death [5]: > 24 h; time of apoptotic death (U-937 cells [1]; U-937 cells, 10 μM (FIG. 1F)): 6 to 12 h"
O=C(CC(=O)C(F)(F)F)c1cccs1 [TTFA],,did not confer significant protection,
C=CCc1cccc(/C=N/NC(=O)CN2CCN(Cc3ccccc3)CC2)c1O [PAC-1],>36 h,,
Tunicamycin,24 h,,
CN(NC(=O)CC(=O)NN(C)C(=S)c1ccccc1)C(=S)c1ccccc1 [Elesclomol],>36 h,,
c1ccc(CN(CCN(Cc2ccccn2)Cc2ccccn2)Cc2ccccn2)nc1 [TPEN],12 h,,
CC(C)[C@H](NC(=O)c1ccc2ccccc2n1)C(=O)N[C@@H](CC(=O)O)C(=O)COc1c(F)cccc1F [Q-VD-OPh],,quantitatively blocked the loss in cell viability,
Cc1cc(=O)[nH]c2c1C(=O)c1c(C)cc(=O)n(C)c1C2=O [DNQ],6 h,,
C=C(C)[C@H]1Cc2c(ccc3c2O[C@@H]2COc4cc(OC)c(OC)cc4[C@@H]2C3=O)O1 [Rotenone],20 h,significant to quantitative protection,
CO[C@@]12[C@H](COC(N)=O)C3=C(C(=O)C(C)=C(N)C3=O)N1C[C@@H]1N[C@@H]12 [Mitomycin C],20 h,,
